Measurements taken from ChEMBL document CHEMBL2424564, “Vermelhotin, an anti-inflammatory agent, suppresses nitric oxide production in RAW 264.7 cells via p38 inhibition” (J Nat Prod, 2013).
pIC50: −log10 of the molar value. Activity calls are given as the source filed them. The calls are words filed in the database; no cut-off is given here.

How the values were obtained:
RAW264.7 [1] = experiment: (§1) Cytotoxicity against mouse RAW264.7 cells assessed as cell survival after 20 hrs by SRB assay; type: cell-based; conditions: raw264.7, 20 h
RAW264.7 [2] = experiment: Antiinflammatory activity in mouse RAW264.7 cells assessed as inhibition of LPS-induced nitric oxide production incubated for 15 mins prior to LPS challenge measured after 20 hrs by Griess assay; type: functional, cell-based
RAW264.7 [3] = experiment: Antiinflammatory activity in mouse RAW264.7 cells assessed as inhibition of LPS-induced nitric oxide production at 50 uM incubated for 15 mins prior to LPS challenge measured after 20 hrs by Griess assay relative to control; type: functional
[4] = as §1; type: cell-based; conditions: RAW264.7 cells, read-out: Survival
[5] = target: T1, MAP kinase p38 (Mus musculus) (UniProt P47811+O08911+Q9WUI1+Q9Z1B7); experiment: Inhibition of p38 phosphorylation in LPS-stimulated mouse RAW264.7 cells at 16.7 uM incubated for 15 mins prior to LPS stimulation measured after 15 mins by Western blot analysis; type: cell-based
RAW264.7 [6] = experiment: Activation of NF-kappaB in mouse RAW264.7 cells assessed as inhibition of LPS-induced IkappaB degradation at 1.9 to 16.7 uM incubated for 15 mins prior to LPS stimulation measured after 15 mins by Western blot analysis; type: cell-based
RAW264.7 [7] = experiment: Effect on JNK phosphorylation in LPS-stimulated mouse RAW264.7 cells at 1.9 to 16.7 uM incubated for 15 mins prior to LPS stimulation measured after 15 mins by Western blot analysis; type: cell-based
RAW264.7 [8] = experiment: Effect on ERK phosphorylation in LPS-stimulated mouse RAW264.7 cells at 1.9 to 16.7 uM incubated for 15 mins prior to LPS stimulation measured after 15 mins by Western blot analysis; type: cell-based
[9] = target: T1, MAP kinase p38 (Mus musculus); experiment: Inhibition of p38 phosphorylation in LPS-stimulated mouse RAW264.7 cells incubated for 15 mins prior to LPS stimulation measured after 15 mins by Western blot analysis; type: cell-based
RAW264.7 [10] = experiment: Downregulation of iNOS mRNA expression in LPS-stimulated mouse RAW264.7 cells at 16.7 uM incubated for 15 mins prior to LPS stimulation measured after 6 hrs by qRT-PCR analysis (reference value: 503.95 no unit); type: functional
RAW264.7 [11] = experiment: Downregulation of iNOS mRNA expression in LPS-stimulated mouse RAW264.7 cells at 5.6 uM incubated for 15 mins prior to LPS stimulation measured after 6 hrs by qRT-PCR analysis (reference value: 503.95 no unit); type: functional
RAW264.7 [12] = experiment: Downregulation of iNOS mRNA expression in LPS-stimulated mouse RAW264.7 cells at 1.9 uM incubated for 15 mins prior to LPS stimulation measured after 6 hrs by qRT-PCR analysis (reference value: 503.95 no unit); type: functional
RAW264.7 [13] = experiment: Downregulation of iNOS mRNA expression in LPS-stimulated mouse RAW264.7 cells at 16.7 uM incubated for 15 mins prior to LPS stimulation measured after 6 hrs by qRT-PCR analysis relative to vehicle-treated control; type: functional
RAW264.7 [14] = experiment: Downregulation of iNOS mRNA expression in LPS-stimulated mouse RAW264.7 cells incubated for 15 mins prior to LPS stimulation measured after 6 hrs by qRT-PCR analysis; type: functional, cell-based
RAW264.7 [15] = experiment: Downregulation of iNOS protein expression in LPS-stimulated mouse RAW264.7 cells incubated for 15 mins prior to LPS stimulation measured after 20 hrs by Western blot analysis; type: functional, cell-based

| SMILES | Activity (RAW264.7 [1]) | pIC50 (RAW264.7 [2]) | inhibition at 50 µM (RAW264.7 [3]) [%] | viability at 20 h [4] [%] | other results |
| --- | --- | --- | --- | --- | --- |
| C/C=C(\C)c1c(Br)c(O)c(C)c2c1Oc1cc(O)c(Br)c(C)c1C(=O)O2 | Toxic | 4.62 | ≥ 80 |  |  |
| C/C=C(\C)c1cc(O)c(C)c2c1Oc1cc(O)c(Cl)c(C)c1C(=O)O2 |  | 4.44 | ≥ 80 | > 80 |  |
| C/C=C/C1=CC=C/C(=C2\C(=O)CNC2=O)O1 [VERMELHOTIN] |  | 5.27 | ≥ 80 | > 80 | inhibition [5]: Active; Activity (RAW264.7 [6]): Active; Activity (RAW264.7 [7]): inactive; Activity (RAW264.7 [8]): inactive; inhibition [9]: Dose-dependent effect; fold change (FC) (RAW264.7 [10]): 13.72; fold change (FC) (RAW264.7 [11]): 144.02; fold change (FC) (RAW264.7 [12]): 203.39; inhibition at 16.7 µM (RAW264.7 [13]): > 95%; inhibition (RAW264.7 [14]): Dose-dependent effect; inhibition (RAW264.7 [15]): Dose-dependent effect |
| Cc1cc(O)c2c(c1O)C(=O)c1cc(O)cc(O)c1C2=O [CATENARIN] |  | 4.38 | ≥ 80 | > 80 |  |
| CNC(=N)NCCC[C@H](N)C(=O)O [TILARGININE] |  | 4.66 |  |  |  |
| CC[C@@H](C)C[C@]1(C)C=C/C(=C2/C(=O)O[C@H](CC(=O)OC)C2=O)O1 | Toxic | 5.17 | ≥ 80 |  |  |
